pIC50: −log10 of the molar value.

This note sets out measurements from patent US20090023773A1, “COMPOSITIONS AND METHODS FOR MODULATING GATED ION CHANNELS” (PainCeptor Pharma Corporation, priority 2007, published 2009).

Experiment [1] addresses T1, recombinant homomeric hASIC1a channels (Homo sapiens, UniProt P78348).
T1 construct: expressed in transfected cells; host or cells: Xenopus laevis oocytes (nuclear microinjection of expression vector such as pcDNA3)
T1 sequence (P78348 1-528): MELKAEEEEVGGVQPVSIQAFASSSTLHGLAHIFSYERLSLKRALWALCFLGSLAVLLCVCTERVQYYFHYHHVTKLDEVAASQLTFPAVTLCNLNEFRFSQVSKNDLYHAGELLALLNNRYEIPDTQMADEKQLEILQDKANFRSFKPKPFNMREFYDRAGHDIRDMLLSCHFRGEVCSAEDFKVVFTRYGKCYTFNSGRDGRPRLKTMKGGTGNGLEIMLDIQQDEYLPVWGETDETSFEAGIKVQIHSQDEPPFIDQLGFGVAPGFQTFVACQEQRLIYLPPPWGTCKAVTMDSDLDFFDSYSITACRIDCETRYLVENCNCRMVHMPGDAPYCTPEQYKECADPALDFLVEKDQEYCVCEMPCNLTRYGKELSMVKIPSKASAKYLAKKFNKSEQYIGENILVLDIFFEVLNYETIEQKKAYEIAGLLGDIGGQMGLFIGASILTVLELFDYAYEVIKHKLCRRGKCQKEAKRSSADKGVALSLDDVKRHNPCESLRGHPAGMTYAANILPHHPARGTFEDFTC
The experiment is described as follows: Two-electrode voltage clamp in Xenopus laevis oocytes expressing gated ion channels (Example 4). It counts as cell-based. To be noted: for pIC50: generated using oocytes as in Example 4; for reduction in the current evoked by a mild pH stimulation: acid-induced inward currents in oocytes injected with hASIC1a cDNA, FIGS. 2A-2C. A general note: Two-electrode voltage clamp holds a large cell at a set potential and records current.

The target in another experiment is T2, hASIC1a (Homo sapiens, UniProt P78348).
T2 construct: expressed in transfected cells
T2 sequence (P78348 1-528): T1 sequence (P78348 1-528)
The experiment in a line: Fluorescent calcium dye (Fluo-4-NW) assay in cells expressing hASIC1a (Example 1). The class given is cell-based. To be noted: CHO cells stably expressing hASIC1a, mild acidic buffer, increasing concentrations; FIGS. 1A-1C. The method, then:
ASIC1a expressing CHO cells are grown in culture medium (DMEM with 10% FBS), in polystyrene culture flasks ([…]) at 37° C. in a humidified atmosphere of 5% CO2. Confluency of cells should be 70-90% on day of plating. Cells are rinsed with 10 ml of PBS and cells are re-suspended by addition of culture medium and trituration with a 25 ml pipette. The cells are seeded at a density of approximately 10^4 cells/ml (50 μl/well and then brought to a total volume of 150 μl/well with culture medium, following 30 minutes incubation) in black-walled, clear bottom, 96-well plates pre-treated with poly-D-lysine (from BD Bioscience). Plated cells were allowed to proliferate for 48-72 h before loading with dye. Fluo-4-NW (500 μg, DiscoveRX) is dissolved in 110 μl DMSO. The Fluo-4-NW stock solution (1000×) is diluted with the assay buffer. A water soluble stock solution (100×) of probenicid (DiscoveRX) and a stock solution (1000×) of pluronic acid (P-127, Molecular Probes) are also added in the loading buffer containing Fluo-4NW dye. The culture medium is aspirated from the wells, and 100 μl of the Fluo-4-NW loading solution is added to each well. The cells are incubated at 37° C. for 30 min. followed by 30 min. incubation at room temperature. The assay buffer contains 90 mM NaCl, 5 mM KCl, 4 mM CaCl2, 0.8 mM MgSO4, 50 mM NMDG, 5 mM Glucose-D, 10 mM HEPES, pH 7.4. After the loading time, the loading buffer is not removed and the fluorescence is measured in FlexStation™ (Molecular Devices, USA), or any other suitable equipment known to the skilled in the art. Temperature: 25° C. First addition: 50 μl test solution at a rate of 26 μl/sec and a starting height of 125 μl. […] Reading intervals: pre-incubation—120 sec. antagonist phase, addition of MES at 145 sec. and reading time with agonist 100 sec (total run time of 240 sec.). Fluorescence obtained after stimulation is corrected for the mean basal fluorescence (in modified Assay Buffer). […] Gated-channel activity was determined by measuring intracellular calcium variation using a fluorescent calcium dye (Fluo-4-NW).

Experiment [2] concerns acute paw inflammation caused by intraplantar injection of λ-carrageenan. The experiment in a line: Carrageenan model for pain (Example 8). It counts as in vivo. To be noted: rat, 30 min prior to carrageenan, 4 h post-carrageenan. Here is the method:
Acute inflammatory hyperalgesia is induced in rats by unilateral injection of 150 μl of a 3% solution of λ-carrageenan into the plantar surface of the left hind paw 3-5 hours prior to testing. Thermal hyperalgesia, mechanical allodynia, mechanical hyperalgesia, weight bearing asymmetry and paw inflammation were determined. Rats are pretreated with test compounds either administered intravenously (IV), by subcutaneous injection (SC) or by oral gavage (PO).
Thermal nociceptive thresholds are determined according to the method described elsewhere (Hargreaves et al., 1988). Briefly, through the glass surface, a radiant heat source (8V, 50 W projector bulb) is focused onto the plantar surface of the hind paw. The rat's paw-withdrawal latency to this stimulus is recorded to the nearest 0.1 s. Each latency score is an average of three trials, which are separated by at least 5 min. In all rats, both the injured and uninjured hind paws are similarly tested, allowing direct comparisons between inflamed and non-inflamed paws. […]
Mechanical hyperalgesia is determined by measuring the difference of withdrawal thresholds in response to increasing pressure in the inflamed vs contralateral paw using the Randall-Sellito Paw pressure meter (IITC Life Science) (Randall L O and Sellito J J., 1957). Briefly, rats are held in a contention jacket suspended by a stand and allowed to acclimate for 10 min. Then the tips of the paw pressure applicator are positioned close to the middle of the plantar and the dorsal area of the paw, avoiding the saphenous nerve innervations and an increasing pressure is applied until the rat removes it. Measures are performed in triplicate for each paw by alternating each paw with an interval of at least 1 min to avoid sensitization. […]
Carrageenan induced paw oedema is measured with a plethysmometer (IITC Life Science). Briefly, a mark is made on the ankles of the rat and the ipsi and contralateral paw are submerged 3 times into water up to the mark in order to determine the paw volume by calculation of water displacement.

In experiment [3] the test system is chemically-induced spontaneous pain evoked by intraplantar injection of formalin. The experiment in a line: Formalin test, model of acute tonic pain (Example 7). It counts as in vivo. To be noted: rat; SC, 10 and 300 μmol/kg, 30 min prior to formalin; FIG. 3A. Here is the method:
Male Sprague-Dawley rats are housed together in groups of three animals under standard conditions with unrestricted access to food and water. All experiments are conducted according to the ethical guidelines for investigations of experimental pain in conscious animals (Zimmerman, 1983).
Assessment of formalin-induced flinching behavior in normal, uninjured rats (body weight 200-300 g) is made after formalin (2.5% in saline, 50-100 μl, s.c.) is injected into the plantar surface of the hindpaw using a 27 G needle. Rats are pretreated with test compounds either administered intravenously (IV), by subcutaneous injection (SC) or by orally (PO).
Nociceptive behavior is determined manually every 5 min by measuring the amount of time spent in each of four behavioral categories: 0, treatment of the injected hindpaw is indistinguishable from that of the contralateral paw; 1, the injected paw has little or no weight placed on it; 2, the injected paw is elevated and is not in contact with any surface; 3, the injected paw is licked, bitten, or shaken. A weighted nociceptive score, ranging from 0 to 3 is calculated by multiplying the time spent in each category by the category weight, summing these products, and dividing by the total time for each 5 min block of time. (Coderre et al., Pain 1993; 54: 43). On the basis of the resulting response patterns, […] of nociceptive behavior are identified and scored: first phase (P1; 0-5 min), interphase (Int; 6-15 min), second phase (P2; […]), phase 2A (P2A; 16-40 min) and phase 2B (P2B; 41-60 min).
Statistical analysis is performed using the Prism™ 4.01 software package (GraphPad, San Diego, Calif., USA). The difference in response levels between treatment groups and control vehicle group is analyzed using an ANOVA followed by Bonferroni's method for post-hoc pair-wise comparisons. A p value <0.05 is considered to be significant.

For the molecule `Cc1cc(OC2CCN(Cc3ccccc3F)C(C)C2)c2cccc(F)c2n1` (stereo not drawn) [Compound 6, 8-Fluoro-4-[1-(2-fluoro-benzyl)-2-methyl-piperidin-4-yloxy]-2-methyl-quinoline], in experiment [1] (Table 1), the pIC50 is 5.00 to 7.00. Moreover, the “reduction in the current evoked by a mild pH stimulation” value in experiment [1] is reported as “clear dose-dependent reduction”. The “inhibition of acid-induced hASIC1a activity (intracellular calcium variation)” value on hASIC1a was “dose-dependently inhibited”.

As for `Cc1cc(OC2CCN(Cc3ccccc3C(=O)O)CC2)c2cccc(F)c2n1` [Compound 1], in experiment [2] (120 mg/kg PO), the mechanical hyperalgesia result is listed as “reversed”, the “size of the inflammation” value is “reduced” and the thermal hyperalgesia result is “reversed”. For the same molecule, the “pain intensity as evaluated by the licking behavior” value in experiment [3] was “dose-dependent reduction”. The pIC50 in experiment [1] (Table 1) is 5.00 to 7.00. The “reduction in the current evoked by a mild pH stimulation” value in experiment [1] is “clear dose-dependent reduction”. Moreover, at hASIC1a, the “inhibition of acid-induced hASIC1a activity (intracellular calcium variation)” value was “dose-dependently inhibited”.

Take `Cc1cc(OC2CCN(Cc3ccccc3C#N)CC2)c2cc(Br)ccc2n1` [Compound 57]: in experiment [1] (Table 2), the pIC50 is less than 4.52.

On to `COc1ccc(CN2CCC(Oc3cc(C)nc4c(F)cccc34)CC2)cc1` [Compound 41], for which the pIC50 in experiment [1] (Table 2) was 5.00 to 7.00.

On to `COc1ccc(F)c2c(OC3CCN(Cc4ccccc4C#N)CC3)cc(C)nc12` [Compound 35], for which the negative-log IC50 (pIC50) in experiment [1] (Table 2) was less than 4.52.

On to `Cc1cc(OC2CCN(Cc3ccc(O)c(C(=O)O)c3)CC2)c2cccc(F)c2n1` [Compound 90], for which, in experiment [1] (Table 2), the pIC50 is no more than 4.52.

As for `COc1cc(F)cc2c(OC3CCN(Cc4ccccc4C#N)CC3)cc(C)nc12` [Compound 34], the pIC50 in experiment [1] (Table 2) was less than 4.52.

With `c1ccc(CN2CCC(Oc3ccnc4ccccc34)CC2)cc1` [Compound 68], in experiment [1] (Table 2), the pIC50 is 5.00 to 7.00.

As to `COc1cccc(CN2CCC(Oc3cc(C)nc4c(F)cccc34)CC2)c1` [Compound 70], the pIC50 in experiment [1] (Table 2) was 5.00 to 7.00.

Consider `Cc1cc(OC2CCN(Cc3ccccc3)C3CCCCC23)c2cccc(F)c2n1` (stereo not drawn) [Compound 74], for which the pIC50 in experiment [1] (Table 2) was 5.00 to 7.00.

Regarding `Cc1cc(OC2CCN(Cc3ccc4c(c3)OCO4)CC2)c2ccccc2n1` [Compound 86], in experiment [1] (Table 2), the negative-log IC50 (pIC50) was 4.70 to 5.00.

As for `Cc1cc(OC2CCN(Cc3ccc(O)cc3F)CC2)c2cccc(F)c2n1` [Compound 49], the pIC50 in experiment [1] (Table 2) was 5.00 to 7.00.

`COc1ccc(CN2CCC(Oc3cc(C)nc4ccc(Br)cc34)CC2)cc1` [Compound 48]: the pIC50 in experiment [1] (Table 2) is less than 4.52.

Regarding `Cc1nc(OC2CCN(Cc3ccccc3)CC2)c2ccccc2n1` [Compound 7], the pIC50 in experiment [1] (Table 1) was 4.70 to 5.00.

Turning to `COC(=O)c1ccc(NC(=O)c2ccccc2CN2CCC(Oc3cc(C)nc4c(F)cccc34)CC2)cc1` [Compound 51], the pIC50 in experiment [1] (Table 2) was 4.70 to 5.00.

As to `Cc1cc(OC2CCN(Cc3ccncc3F)CC2)c2cccc(F)c2n1` [Compound 73], in experiment [1] (Table 2), the negative logarithm of the IC50 (pIC50) was 4.52 to 4.70.

Turning to `Cc1cc(OC2CCN(C(C)c3ccccc3)CC2)c2ccccc2n1` (stereo not drawn) [Compound 38], the pIC50 in experiment [1] (Table 2) is 5.00 to 7.00.

For `Cc1cc(OC2CCN(Cc3ccccc3F)CC2)c2cccc(F)c2n1` [Compound 2], the pIC50 in experiment [1] (Table 1) was 5.00 to 7.00.

On to `Cc1cc(OC2CCN(C(C)C)CC2)c2cccc(F)c2n1` [Compound 39], for which, in experiment [1] (Table 2), the pIC50 was less than 4.52.

As for `Cc1cc(OC2CCN(Cc3ccccc3-c3nnn[nH]3)CC2)c2cc(F)ccc2n1` [Compound 94, 4-(1-(2-(1H-tetrazol-5-yl)benzyl)piperidin-4-yloxy)-6-fluoro-2-methylquinoline], in experiment [2] (30 and 100 mg/kg SC), the mechanical hyperalgesia result is “dose-dependently reversed”, the “size of the inflammation” value was “reduced” and the thermal hyperalgesia result was “dose-dependently reversed”. In experiment [1] (Table 2), the pIC50 is 5.00 to 7.00.

Regarding `Cc1cc(OC2CCN(C(C)c3ccccc3C#N)CC2)c2cccc(F)c2n1` (stereo not drawn) [Compound 18], in experiment [1] (Table 1), the pIC50 is 4.52 to 4.70.

Regarding `COC(=O)c1ccc(CN2CCC(Oc3cc(C)nc4ccccc34)CC2)cc1` [Compound 64], the pIC50 in experiment [1] (Table 2) is 4.52 to 4.70.

As usually defined, the pIC50 is the negative decadic logarithm of the IC50, by convention in mol/L.
